# Measured values: patent US11566007B2, “Ras inhibitors” (Revolution Medicines, Inc., priority 2019, dated 2023)
# pEC50, pIC50: −log10 of the molar value. “And” between values parts separate entries of the source, which are not always exact repeats. Identical values can stand only once.
# Assays:
# [1] = biological target: KRAS WT (Homo sapiens (Human), UniProt P01116+P62937); assay: Ras-Raf (BRAF RBD) disruption / FRET / MOA assay, KRAS WT; format: biochemical; conditions: read-out: IC50* KRAS WT FRET data
# In short: (§1)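 Ternary complex formation (Ras–compound–cyclophilin A) displacing BRAF RBD, monitored by TR-FRET. Three hours at 25° C with compound (top 30 μM final), then 1.5 h with the labelled antibodies. Lower ratio than DMSO indicates disruption; IC50 reported.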
# [2] = biological target: K-Ras G13C (Homo sapiens (Human), UniProt P01116+P62937, G13C); assay: Ras-Raf (BRAF RBD) disruption / FRET / MOA assay, KRAS G13C; format: biochemical; conditions: KRAS G13C; Ras-Raf disruption/FRET/MOA assay; read-out: IC50* KRAS G13C FRET data
# In short: as §1
# [3] = biological target: NRAS G12C (Homo sapiens (Human), UniProt P01111+P62937, G12C); assay: Ras-Raf (BRAF RBD) disruption / FRET / MOA assay, NRAS G12C; format: biochemical; conditions: read-out: IC50* NRAS G12C FRET data
# In short: as §1
# [4] = biological target: KRAS G12V (Homo sapiens (Human), UniProt P01116+P62937, G12V); assay: Ras-Raf (BRAF RBD) disruption / FRET / MOA assay, KRAS G12V; format: biochemical; conditions: read-out: IC50* KRAS G12V FRET data
# In short: as §1
# [5] = test system: NCI-H358 (K-Ras G12C); assay: CellTiter-Glo cell viability assay, NCI-H358; format: cell-based, human; conditions: Homo sapiens, NCI-H358, 120 h, NCI-H358, 5-day treatment; class symbols; read-out: Additional H358 Cell Viability assay data (K-Ras G12C, IC50)
# In short: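 Viability of K-Ras mutant lines is measured by ATP luminescence after five days of compound treatment. Percent of DMSO control is calculated and dose-response data are fitted with a four-parameter logistic equation.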
# [6] = biological target: KRAS G13D (Homo sapiens (Human), UniProt P01116+P62937, G13D); assay: Ras-Raf (BRAF RBD) disruption / FRET / MOA assay, KRAS G13D; format: biochemical; conditions: read-out: IC50* KRAS G13D FRET data
# In short: as §1
# [7] = test system: NCI-H358 cells (K-Ras G12C); assay: Potency assay: pERK in NCI-H358 cells; format: cell-based, human; conditions: Homo sapiens, NCI-H358; H358 KRAS G12C; read-out: pERK EC50
# In short: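 4 h cpd, 37 °C; 10-pt 3-fold series, 10 mM DMSO top stock, duplicates. Readout pERK: AlphaLISA SureFire Ultra or In-Cell Western (IR-800CW secondary, DRAQ5 DNA stain). IC50, 4-PL fit vs log conc.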
# [8] = biological target: KRAS G12S (Homo sapiens (Human), UniProt P01116+P62937, G12S); assay: Ras-Raf (BRAF RBD) disruption / FRET / MOA assay, KRAS G12S; format: biochemical; conditions: Ras-Raf disruption/FRET/MOA assay; class symbols; read-out: KRAS G12S FRET data IC50
# In short: as §1
# [9] = biological target: K-Ras G12C (Homo sapiens (Human), UniProt P01116+P62937, G12C); assay: Ras-Raf (BRAF RBD) disruption / FRET / MOA assay, KRAS G12C; format: biochemical; conditions: KRAS G12C; Ras-Raf disruption/FRET/MOA assay; read-out: IC50* KRAS G12C FRET data
# In short: as §1
# [10] = biological target: KRAS G12D (Homo sapiens (Human), UniProt P01116+P62937, G12D); assay: Ras-Raf (BRAF RBD) disruption / FRET / MOA assay, KRAS G12D; format: biochemical; conditions: Ras-Raf disruption/FRET/MOA assay; class symbols; read-out: KRAS G12D FRET data IC50
# In short: as §1
# Chain of KRAS G13D (P01116-2 other isoform, or with tags, fused parts or gaps G13D): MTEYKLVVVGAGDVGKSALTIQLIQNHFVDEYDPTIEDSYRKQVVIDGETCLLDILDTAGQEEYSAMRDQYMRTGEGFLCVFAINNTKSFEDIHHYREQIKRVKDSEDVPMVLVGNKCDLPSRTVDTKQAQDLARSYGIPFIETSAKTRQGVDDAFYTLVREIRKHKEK
# Chain of KRAS G13D (P62937 whole entry): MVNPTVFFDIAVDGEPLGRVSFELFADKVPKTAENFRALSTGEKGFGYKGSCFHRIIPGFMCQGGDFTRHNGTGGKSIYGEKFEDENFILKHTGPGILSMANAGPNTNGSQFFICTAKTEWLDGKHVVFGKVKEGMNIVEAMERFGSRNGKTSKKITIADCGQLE
# Chain of K-Ras G12C (P01116-2 other isoform, or with tags, fused parts or gaps G12C): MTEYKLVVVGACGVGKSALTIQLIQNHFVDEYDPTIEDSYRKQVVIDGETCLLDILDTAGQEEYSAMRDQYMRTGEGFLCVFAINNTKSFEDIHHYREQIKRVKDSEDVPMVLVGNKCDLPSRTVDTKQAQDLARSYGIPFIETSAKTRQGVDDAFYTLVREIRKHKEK
# Chain of K-Ras G12C (P62937 whole entry): as the sequence (P62937 whole entry) above
# Chain of K-Ras G13C (P01116-2 other isoform, or with tags, fused parts or gaps G13C): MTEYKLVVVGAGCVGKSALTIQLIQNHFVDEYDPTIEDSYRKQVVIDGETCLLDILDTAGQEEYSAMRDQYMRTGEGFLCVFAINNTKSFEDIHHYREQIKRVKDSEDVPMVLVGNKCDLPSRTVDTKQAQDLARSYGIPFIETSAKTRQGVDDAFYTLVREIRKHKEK
# Chain of K-Ras G13C (P62937 whole entry): as the sequence (P62937 whole entry) above
# Chain of NRAS G12C (P01111 whole entry G12C): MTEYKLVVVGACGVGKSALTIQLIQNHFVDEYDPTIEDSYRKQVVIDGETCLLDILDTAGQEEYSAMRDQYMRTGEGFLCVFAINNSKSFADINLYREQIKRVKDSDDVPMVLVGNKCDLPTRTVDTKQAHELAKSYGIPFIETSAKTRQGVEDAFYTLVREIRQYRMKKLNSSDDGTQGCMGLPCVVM
# Chain of NRAS G12C (P62937 whole entry): as the sequence (P62937 whole entry) above
# Chain of KRAS G12V (P01116-2 other isoform, or with tags, fused parts or gaps G12V): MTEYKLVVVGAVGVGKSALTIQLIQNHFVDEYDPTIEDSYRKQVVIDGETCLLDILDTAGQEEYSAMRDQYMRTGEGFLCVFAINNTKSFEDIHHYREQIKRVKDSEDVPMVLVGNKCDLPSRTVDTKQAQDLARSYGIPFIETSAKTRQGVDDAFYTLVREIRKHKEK
# Chain of KRAS G12V (P62937 whole entry): as the sequence (P62937 whole entry) above
# Chain of KRAS G12S (P01116-2 other isoform, or with tags, fused parts or gaps G12S): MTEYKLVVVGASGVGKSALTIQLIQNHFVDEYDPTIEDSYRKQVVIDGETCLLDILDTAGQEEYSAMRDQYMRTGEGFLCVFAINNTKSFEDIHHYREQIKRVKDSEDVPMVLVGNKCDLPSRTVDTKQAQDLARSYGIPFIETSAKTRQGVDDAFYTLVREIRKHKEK
# Chain of KRAS G12S (P62937 whole entry): as the sequence (P62937 whole entry) above
# Chain of KRAS WT (P01116-2 other isoform, or with tags, fused parts or gaps): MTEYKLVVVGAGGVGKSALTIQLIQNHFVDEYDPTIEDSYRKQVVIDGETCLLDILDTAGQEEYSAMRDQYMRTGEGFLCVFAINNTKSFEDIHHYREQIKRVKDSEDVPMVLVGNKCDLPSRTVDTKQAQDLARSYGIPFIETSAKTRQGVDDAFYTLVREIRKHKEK
# Chain of KRAS WT (P62937 whole entry): as the sequence (P62937 whole entry) above
# Chain of KRAS G12D (P01116-2 other isoform, or with tags, fused parts or gaps G12D): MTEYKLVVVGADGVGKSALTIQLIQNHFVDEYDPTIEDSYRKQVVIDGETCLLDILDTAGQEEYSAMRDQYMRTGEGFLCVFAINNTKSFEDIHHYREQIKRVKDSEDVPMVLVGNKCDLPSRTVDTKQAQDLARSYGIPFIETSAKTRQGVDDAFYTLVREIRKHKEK
# Chain of KRAS G12D (P62937 whole entry): as the sequence (P62937 whole entry) above
Compound,pIC50 [1],pIC50 [2],pIC50 [3],pIC50 [4],pIC50 [5],pIC50 [6],pEC50 [7],pIC50 [8],pIC50 [9],pIC50 [10],IC50 [1],IC50 [2],IC50 [3],IC50 [4],IC50 [8],IC50 [9]
CCn1c(-c2ccccc2CN(C)C)c2c3cc(ccc31)-c1cc(O)cc(c1)C[C@H](NC(=O)[C@@H](C(C)C)N(C)C(=O)c1ncc(NC(=O)/C=C/CN(C)C)n1C)C(=O)N1CCC[C@H](N1)C(=O)OCC(C)(C)C2 [Example A126],< 5.00,6.00 to 7.00,7.00 to 8.00,< 5.00,< 6.00,< 5.00,> 5.30,< 5.00,7.00 to 8.00,< 5.00,–,–,–,–,–,–
C=CC(=O)N1CC[C@H](C(=O)N(C)[C@H](C(=O)N[C@H]2Cc3cc(O)cc(c3)-c3ccc4c(c3)c(c(-c3ccc(COC)cc3CN(C)C)n4CC)CC(C)(C)COC(=O)[C@@H]3CCCN(N3)C2=O)C(C)C)C1 [Example A127],5.00 to 6.00,6.00 to 7.00,7.00 to 8.00,6.00 to 7.00,6.00 to 7.00,5.00 to 6.00,> 5.30,6.00 to 7.00,7.00 to 8.00,5.00 to 6.00,–,–,–,–,–,–
C=CC(=O)N1CC[C@H](C(=O)N(C)[C@H](C(=O)N[C@H]2Cc3cc(O)cc(c3)-c3ccc4c(c3)c(c(-c3ccncc3CN(C)C)n4CC)CC(C)(C)COC(=O)[C@@H]3CCCN(N3)C2=O)C(C)C)C1 [Example A128],6.00 to 7.00,6.00 to 7.00,7.00 to 8.00,6.00 to 7.00,> 8.00,6.00 to 7.00,> 5.30,6.00 to 7.00,7.00 to 8.00,5.00 to 6.00,–,–,–,–,–,–
CCn1c(-c2cccnc2COC)c2c3cc(ccc31)-c1cc(O)cc(c1)C[C@H](NC(=O)[C@H](C(C)C)N(C)C(=O)[C@H]1CCN(C(=O)C#CCCN3CCOCC3)C1)C(=O)N1CCC[C@H](N1)C(=O)OCC(C)(C)C2 [Example A129],5.00 to 6.00,6.00 to 7.00,> 8.00,6.00 to 7.00,7.00 to 8.00,5.00 to 6.00,> 5.30,6.00 to 7.00,> 8.00,5.00 to 6.00,–,–,–,–,–,–
CCn1c(-c2cnccc2[C@H](C)OC)c2c3cc(ccc31)-c1cccc(c1)C[C@H](NC(=O)[C@H](C1CCCC1)N(C)C(=O)[C@H]1CCN(C(=O)C#CCN(C)C)C1)C(=O)N1CCC[C@H](N1)C(=O)OCC(C)(C)C2 [Example A133],–,–,–,–,7.00 to 8.00,5.00 to 6.00,> 5.30,–,–,5.00 to 6.00,1 µM to 10 µM (2×) and > 10 µM,10 nM to 100 nM (2×) and 1 µM to 10 µM,10 nM to 100 nM and < 10 nM (2×),1 µM to 10 µM (2×) and > 10 µM,1 µM to 10 µM (2×) and > 10 µM,10 nM to 100 nM and < 10 nM (2×)
CCn1c(-c2cccnc2COC)c2c3cc(ccc31)-c1cc(O)cc(c1)C[C@H](NC(=O)[C@H](C(C)C)N(C)C(=O)[C@H]1CCN(C(=O)/C=C/CN3CCOCC3)C1)C(=O)N1CCC[C@H](N1)C(=O)OCC(C)(C)C2 [Example A134],5.00 to 6.00,5.00 to 6.00,7.00 to 8.00,5.00 to 6.00,6.00 to 7.00,5.00 to 6.00,> 5.30,5.00 to 6.00,7.00 to 8.00,5.00 to 6.00,–,–,–,–,–,–
CCn1c(-c2cnccc2COC)c2c3cc(ccc31)-c1cncc(c1)C[C@H](NC(=O)[C@H](C(C)C)N(C)C(=O)[C@H]1CCN(C(=O)C#CCN(C)C)C1)C(=O)N1CCC[C@H](N1)C(=O)OCC(C)(C)C2 [Example A139],< 5.00,5.00 to 6.00,6.00 to 7.00,< 5.00,6.00 to 7.00,< 5.00,> 5.30,< 5.00,7.00 to 8.00,5.00 to 6.00,–,–,–,–,–,–
CCn1c(-c2cnccc2[C@H](C)OC)c2c3cc(ccc31)-c1cccc(c1)C[C@H](NC(=O)[C@H](C(C)C)N(C)C(=O)[C@H]1CCN(C(=O)C#CCN(C)C)C1)C(=O)N1CCC[C@H](N1)C(=O)OCC(C)(C)C2 [Example A140],5.00 to 6.00,7.00 to 8.00,> 8.00,5.00 to 6.00,> 8.00,5.00 to 6.00,> 5.30,5.00 to 6.00,> 8.00,5.00 to 6.00,–,–,–,–,–,–
CCn1c(-c2cnccc2C(C)C)c2c3cc(ccc31)-c1cc(O)cc(c1)C[C@H](NC(=O)[C@H](C(C)C)N(C)C(=O)[C@H]1CCN(C(=O)C#CCN(C)C)C1)C(=O)N1CCC[C@H](N1)C(=O)OCC(C)(C)C2 [Example A141],6.00 to 7.00,7.00 to 8.00,> 8.00,6.00 to 7.00,> 8.00,6.00 to 7.00,> 5.30,6.00 to 7.00,> 8.00,5.00 to 6.00,–,–,–,–,–,–
CCn1c(-c2cccnc2)c2c3cc(ccc31)-c1cc(O)cc(c1)C[C@H](NC(=O)[C@H](C(C)C)N(C)C(=O)[C@H]1CCN(C(=O)C#CCN(C)C)C1)C(=O)N1CCC[C@H](N1)C(=O)OCC(C)(C)C2 [Example A142],< 5.00,6.00 to 7.00,7.00 to 8.00,< 5.00,6.00 to 7.00,5.00 to 6.00,> 5.30,< 5.00,7.00 to 8.00,5.00 to 6.00,–,–,–,–,–,–
C=CC(=O)N1CCN(C(=O)N(C)[C@H](C(=O)N[C@H]2Cc3cc(O)cc(c3)-c3ccc4c(c3)c(c(-c3ccccc3CCOC)n4CC)CC(C)(C)COC(=O)[C@@H]3CCCN(N3)C2=O)C(C)C)C[C@H]1COC [Example A146],5.00 to 6.00,6.00 to 7.00,6.00 to 7.00,5.00 to 6.00,6.00 to 7.00,5.00 to 6.00,> 5.30,5.00 to 6.00,6.00 to 7.00,< 5.00,–,–,–,–,–,–
